Experimental data taken from patent US7317125B2 (Hoffman-La Roche Inc., priority 2005, dated 2008).

target: T1, DGAT1 (Homo sapiens, UniProt O75907); assay: DGAT CHOK1 Cell Assay; assay type: cell-based; details: CHOK1 cells transfected with DGAT1, 14C palmitic acid, 1 hour at 37° C., triglyceride by TLC
T1 construct: expressed in transfected cells; host or cells: CHOK1
T1 sequence (O75907 1-488): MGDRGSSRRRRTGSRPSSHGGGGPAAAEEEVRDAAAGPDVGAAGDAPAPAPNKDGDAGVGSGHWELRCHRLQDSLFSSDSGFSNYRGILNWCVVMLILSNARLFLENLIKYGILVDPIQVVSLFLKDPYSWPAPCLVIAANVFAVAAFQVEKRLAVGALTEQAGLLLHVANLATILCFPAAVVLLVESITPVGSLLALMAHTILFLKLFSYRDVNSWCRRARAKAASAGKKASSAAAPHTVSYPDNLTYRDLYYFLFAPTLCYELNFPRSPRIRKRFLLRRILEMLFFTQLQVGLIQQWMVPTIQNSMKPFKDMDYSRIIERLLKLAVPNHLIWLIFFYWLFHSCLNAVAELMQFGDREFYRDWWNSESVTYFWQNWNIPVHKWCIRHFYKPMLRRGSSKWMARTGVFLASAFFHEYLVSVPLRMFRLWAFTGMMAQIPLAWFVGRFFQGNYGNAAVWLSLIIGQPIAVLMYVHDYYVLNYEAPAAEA
Text: Materials for the assay were: petroleum ether (J. T. Baker #9268-22); diethyl ether (Aldrich #30995-8); acetic acid; 1,2-dioleoyl-3-palmitoyl-glycerol (Sigma D-1782); ^[…] Palmitic Acid (56.0 mCi/mmol PerkinElmer Life Sciences # NEC 075H); DMEM/F12 (Gibco #11330-032); fetal bovine serum; L-Glutamine; G418/ml media; DMEM High Glucose (Gibco #11995-065); BSA Fraction V Fatty Acid Free (Roche #100 377); 20×°cm silica gel 60 glass plates (EM Science Plates #5721/7).
CHOK1/DGAT cell culture medium was prepared with DMEM/F12 (Gibco #11330-032), […], and 20 ul G418/ml media. 1,2-dioleoyl-3-palmitoyl-glycerol was prepared by dissolving 10 mg into 1 ml chloroform and stored at −20° C. in 100 μl aliquots. Test compounds were prepared as 10 mM stock solutions in DMSO and store at −20° C. before use. Test dilutions were prepared by five fold serial dilutions over final concentrations.
CHOK1 cells transfected with DGAT1 were diluted in 6 well plates at 2.5×10^5 cells per well and cultured overnight. Cells were then washed twice with PBS. Test compound solutions (10 μl/2 ml media aliquots) in DMEM High Glucose with 0.01% BSA (fatty acid free) were added to cell culture plates at 800 μl per well. ^14C Palmitic acid (0.5 μCi, 5 μl) was added to each well. The plates were incubated for 1 hour at 37° C. After the incubation period, the plates were placed on ice, cells were scraped into media and transferred to microfuge tubes. 400 μl chloroform:methanol (2:1) was added to each tube. Each tube was briefly vortexed by hand, then mechanically vortexed for 10 minutes. Each tube was then centrifuged at 14,000 RPM for 10 minutes at 4° C. and the bottom layer removed and transferred to a new microfuge tube.
Extracted samples were spotted onto TLC plates at 20 μl per lane. The TLC plates were eluted with a solvent mixture of petroleum ether, diethyl ether and acetic acid (80:20:1) and air dried. Trigylceride (TG) spots were visualized by placing in an iodine chamber for several minutes. 1 μl of ^14C palmitic acid (diluted 1:10 in 100% EtOH) was spotted on the TG standard lane (at TG level) as a reference. The TLC plates were wrapped in plastic wrap and placed in a phosphorimager cassette for scanning.
The EC50 values for those compounds tested in this Example were generated using an Excel template, the results of which are shown in Table II: […]

Compared with `CC(C)N(NC(=O)c1ccccc1)C(=O)COc1ccc(F)cc1-c1ccc(F)cc1` [Example 1, benzoic acid N′-[2-(5,4′-difluoro-biphenyl-2-yloxy)-acetyl]-N′-isopropyl-hydrazide], `CC(C)N(NC(=O)c1ccccc1)C(=O)COc1ccc(F)cc1-c1cccc(F)c1` [Example 9, benzoic acid N′-[2-(5,3′-difluoro-biphenyl-2-yloxy)-acetyl]-N′-isopropyl-hydrazide] is 2.2-fold lower in EC50: 8300 nM for the first, 3780 nM for the second. The second is the more potent here.

First: CC(C)N(NC(=O)c1ccccc1)C(=O)COc1ccc(F)cc1-c1ccccc1Cl [Example 2, benzoic acid N′-[2-(2′-chloro-5-fluoro-biphenyl-2-yloxy)-acetyl]-N′-isopropyl-hydrazide]
Second: Cc1ccccc1-c1cc(F)ccc1OCC(=O)N(NC(=O)c1ccccc1)C(C)C [Example 3, benzoic acid N′-[2-(5-fluoro-2′-methyl-biphenyl-2-yloxy)-acetyl]-N′-isopropyl-hydrazide]
The EC50 of the first is 3-fold higher: 3100 nM for the first, 1020 nM for the second. The second is the more potent here.

`COc1ccccc1-c1cc(F)ccc1OCC(=O)N(NC(=O)c1ccccc1)C(C)C` [Example 4, benzoic acid N′-[2-(5-fluoro-2′-methoxy-biphenyl-2-yloxy)-acetyl]-N′-isopropyl-hydrazide] and `CCOc1ccccc1-c1cc(F)ccc1OCC(=O)N(NC(=O)c1ccccc1)C(C)C` [Example 21, benzoic acid N′-[2-(2′-ethoxy-5-fluoro-biphenyl-2-yloxy)-acetyl]-N′-isopropyl-hydrazide] are within 1.5-fold of each other in EC50: 1810 nM for the first, 1340 nM for the second.

Compared with `CC(C)N(NC(=O)c1ccccc1)C(=O)COc1ccc(F)cc1-c1ccccc1F` [Example 5, benzoic acid N′-[2-(5,2′-difluoro-biphenyl-2-yloxy)-acetyl]-N′-isopropyl-hydrazide], `CSc1ccccc1-c1cc(F)ccc1OCC(=O)N(NC(=O)c1ccccc1)C(C)C` [Example 13, benzoic acid N′-[2-(5-fluoro-2′-methylsylfanyl-biphenyl-2-yloxy)-acetyl]-N′-isopropyl-hydrazide] is 7.1-fold lower in EC50: 2210 nM for the first, 310 nM for the second. The second is the more potent here.

`CC(C)N(NC(=O)c1ccccc1)C(=O)COc1ccc(F)cc1-c1cccc(Cl)c1` [Example 10] and `CC(C)c1cccc(-c2cc(F)ccc2OCC(=O)N(NC(=O)c2ccccc2)C(C)C)c1` [Example 12, benzoic acid N′-[2-(5-fluoro-3′-isopropyl-biphenyl-2-yloxy)-acetyl]-N′-isopropyl-hydrazide] are within 1.5-fold of each other in EC50: 910 nM for the first, 1010 nM for the second.

Compared with `CC(C)N(NC(=O)c1ccccc1)C(=O)COc1ccc(F)cc1-c1ccccc1` [Example 11, benzoic acid N′-[2-(5-fluoro-biphenyl-2-yloxy)-acetyl]-N′-isopropyl-hydrazide], `CCc1ccccc1-c1cc(F)ccc1OCC(=O)N(NC(=O)c1ccccc1)C(C)C` [Example 16, benzoic acid N′-[2-(2′-ethyl-5-fluoro-biphenyl-2-yloxy)-acetyl]-N′-isopropyl-hydrazide] is 8.6-fold lower in EC50: 1850 nM for the first, 216 nM for the second. The second is the more potent here.

First: CC(C)N(NC(=O)c1ccccc1)C(=O)COc1ccc(F)cc1-c1ccccc1[N+](=O)[O-] [Example 14, benzoic acid N′-[2-(5-fluoro-2′-nitro-biphenyl-2-yloxy)-acetyl]-N′-isopropyl-hydrazide]
Second: CC(C)c1ccccc1-c1cc(F)ccc1OCC(=O)N(NC(=O)c1ccccc1)C(C)C [Example 22, benzoic acid N′-[2-(5-fluoro-2′-isopropyl-biphenyl-2-yloxy)-acetyl]-N′-isopropyl-hydrazide]
The EC50 of the first is 1.7-fold lower: 230 nM for the first, 380 nM for the second.

First: CC(C)Oc1ccccc1-c1cc(F)ccc1OCC(=O)N(NC(=O)c1ccccc1)C(C)C [Example 15, benzoic acid N′-[2-(5-fluoro-2′-isopropoxy-biphenyl-2-yloxy)-acetyl]-N′-isopropyl-hydrazide]
Second: CCCOc1ccccc1-c1cc(F)ccc1OCC(=O)N(NC(=O)c1ccccc1)C(C)C [Example 17, benzoic acid N′-[2-(5-fluoro-2′-propoxy-biphenyl-2-yloxy)-acetyl]-N′-isopropyl-hydrazide]
The EC50 of the first is 2.2-fold higher: 4860 nM for the first, 2170 nM for the second. The second is the more potent here.

Going from `COC(=O)c1ccccc1-c1cc(F)ccc1OCC(=O)N(NC(=O)c1ccccc1)C(C)C` [Example 18, benzoic acid N′-[2-(2′-methoxycarbonyl-5-fluoro-biphenyl-2-yloxy)-acetyl]-N′-isopropyl-hydrazide] to `CC(C)N(NC(=O)c1ccccc1)C(=O)COc1ccc(F)cc1-c1ccccc1OC(F)(F)F` [Example 20, benzoic acid N′-[2-(5-fluoro-2′-trifluoromethoxy-biphenyl-2-yloxy)-acetyl]-N′-isopropyl-hydrazide], the EC50 falls from 2690 nM to 328 nM (8.2-fold). The second is the more potent here.

`Cc1cccc(-c2cc(F)ccc2OCC(=O)N(NC(=O)c2ccccc2)C(C)C)c1C` [Example 19, benzoic acid N′-[2-(2′,3′-dimethyl-5-fluoro-biphenyl-2-yloxy)-acetyl]-N′-isopropyl-hydrazide] and `Cc1cc(F)ccc1-c1cc(F)ccc1OCC(=O)N(NC(=O)c1ccccc1)C(C)C` [Example 25, benzoic acid N′-[2-(5,4′-difluoro-4′-methyl-biphenyl-2-yloxy)-acetyl]-N′-isopropyl-hydrazide] are within 1.5-fold of each other in EC50: 1300 nM for the first, 1370 nM for the second.

Compared with `CC(C)N(NC(=O)c1ccccc1)C(=O)COc1ccc(F)cc1-c1ccc(F)cc1F` [Example 24, benzoic acid N′-[2-(5,2′,4′-trifluoro-biphenyl-2-yloxy)-acetyl]-N′-isopropyl-hydrazide], `CC(C)N(NC(=O)c1ccccc1)C(=O)COc1c(F)cc(F)cc1-c1ccccc1OC(F)(F)F` [Example 33, benzoic acid N′-[2-(3,5-difluoro-2′-trifluoromethoxy-biphenyl-2-yloxy)-acetyl]-N′-isopropyl hydrazide] is 8.2-fold lower in EC50: 2930 nM for the first, 356 nM for the second. The second is the more potent here.

Going from `CCc1ccccc1-c1cc(C)ccc1OCC(=O)N(NC(=O)c1ccccc1)C(C)C` [Example 26, benzoic acid N′-[2-(2′-ethyl-5-methyl-biphenyl-2-yloxy)-acetyl]-N′-isopropyl-hydrazide] to `CCc1ccccc1-c1cc(C#N)ccc1OCC(=O)N(NC(=O)c1ccccc1)C(C)C` [Example 29, benzoic acid N′-[2-(5-cyano-2′-ethyl-biphenyl-2-yloxy)-acetyl]-N′-isopropyl-hydrazide], the EC50 rises from 880 nM to 1370 nM (1.6-fold).

First: CCc1ccccc1-c1cc(F)c(F)cc1OCC(=O)N(NC(=O)c1ccccc1)C(C)C [Example 27, benzoic acid N′-[2-(2′-ethyl-4,5-difluoro-biphenyl-2-yloxy)-acetyl]-N′-isopropyl-hydrazide]
Second: CCc1ccccc1-c1cc(F)cc(F)c1OCC(=O)N(NC(=O)c1ccccc1)C(C)C [Example 28, benzoic acid N′-[2-(2′-ethyl-3,5-difluoro-biphenyl-2-yloxy)-acetyl]-N′-isopropyl-hydrazide]
The EC50 of the first is 7.1-fold higher: 2100 nM for the first, 296 nM for the second. The second is the more potent here.

Compared with `CCc1ccccc1-c1cc(F)ccc1OCC(=O)N(NC(=O)c1ccc(OCCOC)cc1)C(C)C` [Example 30, 4-(2-methoxy-ethoxy)-benzoic acid N′-[2-(5-fluoro-2′-ethyl-biphenyl-2-yloxy)-acetyl]-N′-isopropyl hydrazide], `Cc1ccc(OCC(=O)N(NC(=O)c2ccccc2)C(C)C)c(-c2ccccc2OC(F)(F)F)c1` [Example 31] is 2.4-fold lower in EC50: 1830 nM for the first, 776 nM for the second. The second is the more potent here.

In the case of `CC(C)N(NC(=O)c1ccccc1)C(=O)COc1cc(F)c(F)cc1-c1ccccc1OC(F)(F)F` [Example 32, benzoic acid N′-[2-(4,5-difluoro-2′-trifluoromethoxy-biphenyl-2-yloxy)-acetyl]-N′-isopropyl hydrazide], the EC50 is reported as 938 nM.
